≈ marks a conversion by molar mass, not a printed value. Like-named read-outs stand apart in the source and are kept apart here. Numbered stars: 1 amine (or outer) side, 2 acyl side, 3 side chain; on linkers, the order of the positions; unused ones are H or OH. Square brackets hold non-standard residues; d marks the D form. Peptide text beside a SMILES is read from it. ξ: configuration not given here. X13 = CN([C@@H](Cc1cccc(-c2ccc(N3CCN(C(=O)OC(C)(C)C)CC3)nc2)c1)C(=O)[*:2])[*:1]; X21 = CC1CCN(c2cc(-c3cccc(C[C@@H](C(=O)[*:2])N(C)[*:1])c3)ccn2)CC1; X15 = CN([C@@H](Cc1cccc(-c2ccc(N3CCOCC3)nc2)c1)C(=O)[*:2])[*:1]; X24 = CN([C@@H](Cc1cccc(-c2ccnc(N3CCOCC3)c2)c1)C(=O)[*:2])[*:1]; X12 = CN(C)c1cc(-c2cccc(C[C@@H](C(=O)[*:2])N(C)[*:1])c2)ccn1; X14 = CN([C@@H](Cc1cccc(-c2ccc3ncccc3c2)c1)C(=O)[*:2])[*:1]; X17 = CN([C@@H](Cc1cccc(-c2cnc3ccccc3c2)c1)C(=O)[*:2])[*:1]; Hmp(2R,3S) = CC[C@H](C)[C@@H](O)C(=O)O; NMeVal(β-OH) = CN[C@H](C(=O)O)C(C)(C)O; X6 = CCC(C)[C@@H](O[*:1])C(=O)[*:2]; Ile(3ξ) = CCC(C)[C@H](N)C(=O)O; NMeV = CN[C@H](C(=O)O)C(C)C
How the values were obtained:
[1] = system: A. fumigatus MMX 5944; test: MIC/MEC assay (CLSI microdilution); format: cell-based; settings: Aspergillus fumigatus, MMX5944, 48 h; for minimal effective concentration: RPMI plus 0.002% Tween-80; for MIC: RPMI plus 0.002% Tween-80, read-out: MIC
In short: (§1)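 Broth microdilution per CLSI in RPMI-1640 with 0.002% Tween-80; MMX 5280 also run without Tween-80. Test compounds serially diluted two-fold in 95% ethanol, amphotericin B in DMSO (0.06-64 μg/mL). Aspergillus spore inoculum gave approximately 0.2-2.5×10^4 CFU/mL final.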

[2] = system: A. flavus MMX 5948; test: MIC/MEC assay (CLSI microdilution); format: cell-based; settings: Aspergillus flavus, MMX5948, 48 h; for minimal effective concentration: RPMI plus 0.002% Tween-80; for MIC: RPMI plus 0.002% Tween-80, read-out: MIC
In short: as §1

[3] = system: A. fumigatus MMX 6782 ATCC 13073; test: MIC/MEC assay (CLSI microdilution); format: cell-based; settings: Aspergillus fumigatus, ATCC13073, 48 h; for MIC: RPMI plus 0.002% Tween-80, read-out: MIC; for minimal effective concentration: RPMI plus 0.002% Tween-80, read-out: MEC
In short: as §1

[4] = system: A. niger MMX 0624 ATCC 16888; test: MIC/MEC assay (CLSI microdilution); format: cell-based; settings: for minimal effective concentration: RPMI plus 0.002% Tween-80, read-out: MEC
In short: as §1

[5] = system: A. fumigatus from Aureogen; test: MIC/MEC assay (CLSI microdilution); format: cell-based; settings: Aspergillus fumigatus, 48 h; for minimal effective concentration: RPMI plus 0.002% Tween-80; for MIC: RPMI plus 0.002% Tween-80, read-out: MIC
In short: as §1

[6] = system: A. fumigatus MMX 6781 ATCC MYA-4609; test: MIC/MEC assay (CLSI microdilution); format: cell-based; settings: Aspergillus fumigatus; for MIC: 48 h, RPMI plus 0.002% Tween-80, read-out: MIC; for minimal effective concentration: RPMI plus 0.002% Tween-80, 48 hr
In short: as §1

[7] = system: C. neoformans MMX 0634 ATCC 90112; test: MIC assay (CLSI microdilution); format: cell-based; settings: Cryptococcus neoformans, ATCC90112, RPMI plus 0.002% Tween-80; read-out: MIC
[8] = system: C. albicans MMX 2000 ATCC 10231; test: MIC assay (CLSI microdilution); format: cell-based; settings: Candida albicans, ATCC10231, RPMI plus 0.002% Tween-80; read-out: MIC
[9] = system: C. parapsilosis MMX 2323 ATCC 22019; test: MIC assay (CLSI microdilution); format: cell-based, Candida parapsilosis; settings: read-out: MIC
In short: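 Broth microdilution MIC testing of Candida parapsilosis ATCC 22019 followed CLSI methods in RPMI-1640, with or without 0.002% Tween-80. Yeast grown 48 hours at 35° C on Sabouraud dextrose agar was suspended to a 0.5 McFarland standard and diluted 1:100 to roughly 0.5-2.5×10^3 CFU/mL. The MIC was the lowest concentration preventing visible growth.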

[10] = system: A. fumigatus MMX 5280 ATCC MYA-3626; test: MIC/MEC assay (CLSI microdilution); format: cell-based, Aspergillus fumigatus; settings: Aspergillus fumigatus, 48 h
In short: as §1

[11] = Aspergillus niger, ATCC16888, 48 h
[12] = Aspergillus niger, ATCC16888, 48 h, RPMI plus 0.002% Tween-80, read-out: MIC
[13] = ATCC22019, RPMI plus 0.002% Tween-80
[14] = RPMI plus 0.002% Tween-80, read-out: MEC
[15] = RPMI plus 0.002% Tween-80, read-out: MIC
[16] = Without Tween-80, read-out: MEC
[17] = Without Tween-80, read-out: MIC
[18] = RPMI plus 0.002% Tween-80, 48 hr

Row | Compound | MIC [1] [µg/mL] | MIC [2] [µg/mL] | MIC [3] [µg/mL] | MIC [4, 12] [µg/mL] | MIC [5] [µg/mL] | MIC [6] [µg/mL] | MIC [7] [µg/mL] | MIC [8] [µg/mL] | MIC [9, 13] [µg/mL] | MIC ([9]; ATCC22019, Without Tween-80) [µg/mL] | MIC [10, 15] [µg/mL] | MIC [10, 17] [µg/mL] | minimal effective concentration [1] [µg/mL] | minimal effective concentration [2] [µg/mL] | minimal effective concentration [4, 11] [µg/mL] | minimal effective concentration [5] [µg/mL] | minimal effective concentration [6] [µg/mL] | minimal effective concentration [10, 14] [µg/mL] | minimal effective concentration [10, 16] [µg/mL] | minimal effective concentration [3] [µg/mL] | also measured
1 | CC[C@H](C)[C@@H]1NC(=O)[C@@H]2CCCN2C(=O)[C@H](Cc2cccc(-c3ccc(N4CCOCC4)nc3)c2)N(C)C(=O)[C@H](Cc2ccccc2)NC(=O)[C@H](C(C)C)N(C)C(=O)[C@@H]([C@@H](C)CC)OC(=O)[C@H](C(C)(C)O)N(C)C(=O)[C@H](CC(C)C)NC(=O)[C@H](C(C)C)N(C)C1=O [Compound 24] (cyclo(F[X15]PI[NMeV]L[NMeVal(β-OH)][Hmp(2R,3S)][NMeV])) | > 64 | 0.5 | > 64 | 0.25 | > 64 | > 64 | 0.5 | 0.03 | 0.12 | 1 (≈ 0.791 µM) | > 64 | > 64 | > 64 | 0.25 | 0.25 | > 64 | > 64 | > 64 | > 64 | > 64 | 
2 | CC[C@H](C)[C@@H]1NC(=O)[C@@H]2CCCN2C(=O)[C@H](Cc2cccc(-c3ccc(N4CCN(C(=O)OC(C)(C)C)CC4)nc3)c2)N(C)C(=O)[C@H](Cc2ccccc2)NC(=O)[C@H](C(C)C)N(C)C(=O)[C@@H]([C@@H](C)CC)OC(=O)[C@H](C(C)(C)O)N(C)C(=O)[C@H](CC(C)C)NC(=O)[C@H](C(C)C)N(C)C1=O [Compound 26] (cyclo(F[X13]PI[NMeV]L[NMeVal(β-OH)][Hmp(2R,3S)][NMeV])) | > 64 | > 64 | > 64 |  | > 64 | > 64 | 0.25 | 0.12 | 1 | 2 (≈ 1.47 µM) | > 64 | > 64 | > 64 | > 64 |  | > 64 | > 64 | > 64 | > 64 | > 64 | MEC [4, 18]: 2/2 μg/mL; MIC [4, 18]: 2/2 μg/mL
3 | CC[C@H](C)[C@@H]1NC(=O)[C@@H]2CCCN2C(=O)[C@H](Cc2cccc(-c3cnc4ccccc4c3)c2)N(C)C(=O)[C@H](Cc2ccccc2)NC(=O)[C@H](C(C)C)N(C)C(=O)[C@@H]([C@@H](C)CC)OC(=O)[C@H](C(C)(C)O)N(C)C(=O)[C@H](CC(C)C)NC(=O)[C@H](C(C)C)N(C)C1=O [Compound 27] (cyclo(F[X17]PI[NMeV]L[NMeVal(β-OH)][Hmp(2R,3S)][NMeV])) | > 64 | 0.5 | > 64 | 0.06 | > 64 | > 64 | 0.12 | 0.015 | 0.12 | 1 (≈ 0.814 µM) | > 64 | > 64 | > 64 | 0.12 | 0.06 | > 64 | > 64 | > 64 | > 64 | > 64 | 

Now from value to compound, other results behind:

Row | MIC [1] [µg/mL] | MIC [2] [µg/mL] | MIC [3] [µg/mL] | MIC [4, 12] [µg/mL] | MIC [5] [µg/mL] | MIC [6] [µg/mL] | MIC [7] [µg/mL] | MIC [8] [µg/mL] | MIC [9, 13] [µg/mL] | MIC ([9]; ATCC22019, Without Tween-80) [µg/mL] | MIC [10, 15] [µg/mL] | MIC [10, 17] [µg/mL] | Compound | minimal effective concentration [1] [µg/mL] | minimal effective concentration [2] [µg/mL] | minimal effective concentration [4, 11] [µg/mL] | minimal effective concentration [5] [µg/mL] | minimal effective concentration [6] [µg/mL] | minimal effective concentration [10, 14] [µg/mL] | minimal effective concentration [10, 16] [µg/mL] | minimal effective concentration [3] [µg/mL] | also measured
4 | > 64 | 0.5 | > 64 | 0.25 | > 64 | > 64 | 0.25 | 0.03 | 0.12 | 1 (≈ 0.814 µM) | > 64 | > 64 | CCC(C)[C@@H]1NC(=O)[C@@H]2CCCN2C(=O)[C@H](Cc2cccc(-c3ccc4ncccc4c3)c2)N(C)C(=O)[C@H](Cc2ccccc2)NC(=O)[C@H](C(C)C)N(C)C(=O)[C@@H](C(C)CC)OC(=O)[C@H](C(C)(C)O)N(C)C(=O)[C@H](CC(C)C)NC(=O)[C@H](C(C)C)N(C)C1=O (stereo partly drawn) [Compound 18] (cyclo(F[X14]P[Ile(3ξ)][NMeV]L[NMeVal(β-OH)][X6][NMeV])) | > 64 | 0.25 | 0.06 | > 64 | > 64 | > 64 | > 64 |  | 
5 | > 64 | > 64 | > 64 | 0.25 | > 64 | > 64 | 0.25 | 0.015 | 0.06 | 1 (≈ 0.791 µM) | > 64 | > 64 | CC[C@H](C)[C@@H]1NC(=O)[C@@H]2CCCN2C(=O)[C@H](Cc2cccc(-c3ccnc(N4CCOCC4)c3)c2)N(C)C(=O)[C@H](Cc2ccccc2)NC(=O)[C@H](C(C)C)N(C)C(=O)[C@@H]([C@@H](C)CC)OC(=O)[C@H](C(C)(C)O)N(C)C(=O)[C@H](CC(C)C)NC(=O)[C@H](C(C)C)N(C)C1=O [Compound 21] (cyclo(F[X24]PI[NMeV]L[NMeVal(β-OH)][Hmp(2R,3S)][NMeV])) | > 64 | 0.25 | 0.06 | > 64 | > 64 | > 64 | > 64 | > 64 | 
6 | > 64 | > 64 | > 64 | 0.5 | > 64 | > 64 | 0.25 | 0.03 | 0.06 | 1 (≈ 0.819 µM) | > 64 | > 64 | CC[C@H](C)[C@@H]1NC(=O)[C@@H]2CCCN2C(=O)[C@H](Cc2cccc(-c3ccnc(N(C)C)c3)c2)N(C)C(=O)[C@H](Cc2ccccc2)NC(=O)[C@H](C(C)C)N(C)C(=O)[C@@H]([C@@H](C)CC)OC(=O)[C@H](C(C)(C)O)N(C)C(=O)[C@H](CC(C)C)NC(=O)[C@H](C(C)C)N(C)C1=O [Compound 22] (cyclo(F[X12]PI[NMeV]L[NMeVal(β-OH)][Hmp(2R,3S)][NMeV])) | > 64 | > 64 | 0.25 | > 64 | > 64 | > 64 | > 64 | > 64 | 
7 | > 64 | > 64 | > 64 | 0.25 | > 64 | > 64 | 0.25 | 0.06 | 0.12 | 1 (≈ 0.784 µM) | > 64 | > 64 | CC[C@H](C)[C@@H]1NC(=O)[C@@H]2CCCN2C(=O)[C@H](Cc2cccc(-c3ccnc(N4CCC(C)CC4)c3)c2)N(C)C(=O)[C@H](Cc2ccccc2)NC(=O)[C@H](C(C)C)N(C)C(=O)[C@@H]([C@@H](C)CC)OC(=O)[C@H](C(C)(C)O)N(C)C(=O)[C@H](CC(C)C)NC(=O)[C@H](C(C)C)N(C)C1=O [Compound 23] (cyclo(F[X21]PI[NMeV]L[NMeVal(β-OH)][Hmp(2R,3S)][NMeV])) | > 64 | > 64 | 0.12 | > 64 | > 64 | > 64 | > 64 | > 64 | 

Reference: patent US11066447B2, “Aureobasidium derivatives and methods of synthesis” (AureoGen Biosciences, Inc., priority 2016, dated 2021)
